# Laboratory results as given in patent publication US20020137929A1, “1 - (3-heterocyclylphenyl) isothiourea, -isourea, -guanidine and -amidine herbicidal agents” (Intellectual Property Department, BASF Aktiengesellschaft, priority 1998, published 2002).
# Key:
# [1] = system: ECHORC (Watergrass (Calif.)); assay: Preemergence weed control under flooded paddy conditions; assay type: in vivo, Echinochloa oryzoides; conditions: rated 3-4 weeks after treatment
# How it was run: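 Flooded-pot preemergence screen with silt loam and seeds in the upper 0.5 cm. Dose about 0.0313 to 0.500 kg/ha, delivered into flood water; visual 0-9 score after 3 to 4 weeks.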
# [2] = system: IPOHE (Morningglory, Ivyleaf); assay: Postemergence herbicidal evaluation; assay type: in vivo, Ipomoea hederacea; conditions: postemergence
# How it was run: (§1)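 Compound is applied as a foliar spray to seedlings about two weeks old, formulated in equal parts acetone and water with 0.5% TWEEN 20 and delivered at 40 psi to give about 0.0156–0.500 kg per hectare. Injury is rated visually 0–9 after four to five weeks.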
# ORYSAT (Rice, Tebonnet) = assay: Preemergence herbicidal evaluation; assay type: in vivo, Oryza sativa, (L.) Tebonnet; conditions: preemergence, rated 4-5 weeks after treatment, 0-9 scale
# How it was run: (§2)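 Seeds were mixed with potting soil and planted on about one inch of soil, then sprayed with test compound in aqueous acetone at about 0.0156 to 0.500 kg per hectare. Plants grew under standard greenhouse care and were visually rated 0-9 against untreated controls 4-5 weeks post-treatment.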
# [3] = system: TRZAWR (Wheat, Winter, cv Riband); assay: Preemergence herbicidal evaluation; assay type: in vivo, Triticum aestivum; conditions: preemergence, rated 4-5 weeks after treatment, 0-9 scale
# How it was run: as §2
# MOOVA (Monochoria) = assay: Preemergence weed control under flooded paddy conditions; assay type: in vivo, Monochoria vaginalis; conditions: rated 3-4 weeks after treatment
# How it was run: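 Seeds or propagules sown in top 0.5 cm of silt loam soil, flooded 1.5 to 3 cm above surface throughout. Compound in 50/50 v/v aqueous/acetone pipetted into flood water at about 0.0313 to 0.500 kg/ha. Visual 0-9 rating versus control after three to four weeks in greenhouse.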
# ECHCG (Barnyardgrass) = assay: Preemergence herbicidal evaluation; assay type: in vivo, Echinochloa crus-galli; conditions: preemergence, rated 4-5 weeks after treatment, 0-9 scale
# How it was run: as §2
# [4] = system: ECHORC (Watergrass (Calif.)); assay: Postemergence weed control under flooded paddy conditions; assay type: in vivo, Echinochloa oryzoides; conditions: postemergence weeds, rated 3 to 4 weeks after treatment
# How it was run: (§3)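 With weeds 3 to 5 cm tall and rice at the 1.5 to 2.5 leaf stage, containers were flooded and water held 1.5 to 3 cm above soil. Compounds in 50/50 v/v aqueous/acetone went into the flood water at about 0.0313 to 0.500 kg/ha a.i. Effects were visually rated 0–9 against controls after three to four weeks in the greenhouse.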
# [5] = system: CHEAL (Lambsquarters, Common); assay: Preemergence herbicidal evaluation; assay type: in vivo, Chenopodium album; conditions: preemergence, rated 4-5 weeks after treatment, 0-9 scale
# How it was run: as §2
# [6] = system: IPOHE (Morningglory, Ivyleaf); assay: Preemergence herbicidal evaluation; assay type: in vivo, Ipomoea hederacea; conditions: preemergence, rated 4-5 weeks after treatment, 0-9 scale
# How it was run: as §2
# CYPIR (Rice Flatsedge) = assay: Postemergence weed control under flooded paddy conditions; assay type: in vivo, Cyperus iria; conditions: postemergence weeds, rated 3 to 4 weeks after treatment
# How it was run: as §3
# [7] = system: TRZAWR (Wheat, Winter, cv Riband); assay: Postemergence herbicidal evaluation; assay type: in vivo, Triticum aestivum; conditions: postemergence
# How it was run: as §1
# ABUTH (Velvetleaf) = assay: Postemergence herbicidal evaluation; assay type: in vivo, Abutilon theophrasti; conditions: postemergence
# How it was run: as §1
# SETVI (Foxtail, Green) = assay: Preemergence herbicidal evaluation; assay type: in vivo, Setaria viridis; conditions: preemergence, rated 4-5 weeks after treatment, 0-9 scale
# How it was run: as §2
smiles,measurement,setting,value
"CCOC(=O)CN1C(=O)C(CC(=O)NOC)SC1=Nc1cc(-n2c(=O)cc(C(F)(F)F)n(C)c2=O)c(F)cc1Cl (stereo not shown) [Compound 83, Ethyl 2-{{2-chloro-5-[3,6-dihydro-3-methyl-2,6-dioxo-4-(trifluoromethyl)-1(2H)-pyrimidinyl]-4-fluorophenyl}imino}-5-[(methoxycarbamoyl)methyl]-4-oxo-3-thiazolidineacetate]",ECHORC herbicidal effect rating,[1]; 0.0313 kg/ha,5.0
same,ECHORC herbicidal effect rating,[1]; 0.0625 kg/ha,6.0
same,ECHORC herbicidal effect rating,[1]; 0.1250 kg/ha,7.0
same,ECHORC herbicidal effect rating,[1]; 0.2500 kg/ha,7.0
same,IPOHE herbicidal rating,[2]; rate 0.0156 kg/ha,9.0
same,IPOHE herbicidal rating,[2]; rate 0.0313 kg/ha,9.0
same,IPOHE herbicidal rating,[2]; rate 0.0625 kg/ha,9.0
same,IPOHE herbicidal rating,[2]; rate 0.1250 kg/ha,9.0
same,ORYSAT rating,"ORYSAT (Rice, Tebonnet); 0.0156 kg/ha",0.0
same,ORYSAT rating,"ORYSAT (Rice, Tebonnet); 0.0313 kg/ha",0.0
same,ORYSAT rating,"ORYSAT (Rice, Tebonnet); 0.0625 kg/ha",0.0
same,ORYSAT rating,"ORYSAT (Rice, Tebonnet); 0.1250 kg/ha",0.0
same,ORYSAT rating,"ORYSAT (Rice, Tebonnet); 0.2500 kg/ha",0.0
same,ORYSAT rating,"ORYSAT (Rice, Tebonnet); 0.5000 kg/ha",5.0
same,TRZAWR rating,[3]; 0.0156 kg/ha,0.0
same,TRZAWR rating,[3]; 0.0313 kg/ha,0.0
same,TRZAWR rating,[3]; 0.0625 kg/ha,0.0
same,TRZAWR rating,[3]; 0.1250 kg/ha,0.0
same,TRZAWR rating,[3]; 0.2500 kg/ha,0.0
same,TRZAWR rating,[3]; 0.5000 kg/ha,5.0
same,MOOVA herbicidal effect rating,MOOVA (Monochoria); 0.0313 kg/ha,9.0
same,MOOVA herbicidal effect rating,MOOVA (Monochoria); 0.0625 kg/ha,9.0
same,MOOVA herbicidal effect rating,MOOVA (Monochoria); 0.1250 kg/ha,9.0
same,MOOVA herbicidal effect rating,MOOVA (Monochoria); 0.2500 kg/ha,9.0
same,ECHCG rating,ECHCG (Barnyardgrass); 0.0156 kg/ha,0.0
same,ECHCG rating,ECHCG (Barnyardgrass); 0.0313 kg/ha,0.0
same,ECHCG rating,ECHCG (Barnyardgrass); 0.0625 kg/ha,0.0
same,ECHCG rating,ECHCG (Barnyardgrass); 0.1250 kg/ha,0.0
same,ECHCG rating,ECHCG (Barnyardgrass); 0.2500 kg/ha,0.0
same,ECHCG rating,ECHCG (Barnyardgrass); 0.5000 kg/ha,4.0
same,Herbicidal rating ECHORC,[4]; Rate 0.0313 kg/ha,5.0
same,Herbicidal rating ECHORC,[4]; Rate 0.0625 kg/ha,6.0
same,Herbicidal rating ECHORC,[4]; Rate 0.1250 kg/ha,7.0
same,Herbicidal rating ECHORC,[4]; Rate 0.2500 kg/ha,7.0
same,CHEAL rating,[5]; 0.0156 kg/ha,9.0
same,CHEAL rating,[5]; 0.0313 kg/ha,9.0
same,CHEAL rating,[5]; 0.0625 kg/ha,9.0
same,CHEAL rating,[5]; 0.1250 kg/ha,9.0
same,CHEAL rating,[5]; 0.2500 kg/ha,9.0
same,CHEAL rating,[5]; 0.5000 kg/ha,9.0
same,IPOHE rating,[6]; 0.0156 kg/ha,0.0
same,IPOHE rating,[6]; 0.0313 kg/ha,0.0
same,IPOHE rating,[6]; 0.0625 kg/ha,0.0
same,IPOHE rating,[6]; 0.1250 kg/ha,3.0
same,IPOHE rating,[6]; 0.2500 kg/ha,9.0
same,IPOHE rating,[6]; 0.5000 kg/ha,9.0
same,Herbicidal rating CYPIR,CYPIR (Rice Flatsedge); Rate 0.0313 kg/ha,5.0
same,Herbicidal rating CYPIR,CYPIR (Rice Flatsedge); Rate 0.0625 kg/ha,6.0
same,Herbicidal rating CYPIR,CYPIR (Rice Flatsedge); Rate 0.1250 kg/ha,6.0
same,Herbicidal rating CYPIR,CYPIR (Rice Flatsedge); Rate 0.2500 kg/ha,7.0
same,TRZAWR herbicidal rating,[7]; rate 0.0156 kg/ha,3.5
same,TRZAWR herbicidal rating,[7]; rate 0.0313 kg/ha,4.0
same,TRZAWR herbicidal rating,[7]; rate 0.0625 kg/ha,4.5
same,TRZAWR herbicidal rating,[7]; rate 0.1250 kg/ha,6.5
same,ABUTH herbicidal rating,ABUTH (Velvetleaf); rate 0.0156 kg/ha,9.0
same,ABUTH herbicidal rating,ABUTH (Velvetleaf); rate 0.0313 kg/ha,9.0
same,ABUTH herbicidal rating,ABUTH (Velvetleaf); rate 0.0625 kg/ha,9.0
same,ABUTH herbicidal rating,ABUTH (Velvetleaf); rate 0.1250 kg/ha,9.0
same,SETVI rating,"SETVI (Foxtail, Green); 0.0156 kg/ha",0.0
same,SETVI rating,"SETVI (Foxtail, Green); 0.0313 kg/ha",0.0
same,SETVI rating,"SETVI (Foxtail, Green); 0.0625 kg/ha",0.0
same,SETVI rating,"SETVI (Foxtail, Green); 0.1250 kg/ha",2.0
same,SETVI rating,"SETVI (Foxtail, Green); 0.2500 kg/ha",9.0
same,SETVI rating,"SETVI (Foxtail, Green); 0.5000 kg/ha",9.0
